Experimental data taken from patent publication US20230364012A1, “STABLE OPHTHALMIC COMPOSITION OF LOTEPREDNOL” (MANKIND PHARMA LTD., priority 2022, published 2023).

Assay: Particle size of the compositions, tested initially, after 15 days and one month (stability studies)
Type: physicochemical
Settings: Initial
Protocol: The particle size of the compositions of the invention were tested initially, after 15 days and one month. The compositions of the invention were then observed and tested for particle aggregation, settling, and flocculation on long term storage. The observations at one month, three months, 6 months, 9 months are as follows: […]

Particle size D10: 1 µm
Particle size D50: 3.3 µm
Particle size D90: 9.1 µm
SMILES: CCOC(=O)O[C@]1(C(=O)OCCl)CC[C@H]2[C@@H]3CCC4=CC(=O)C=C[C@]4(C)[C@H]3[C@@H](O)C[C@@]21C [API, Loteprednol etabonate]
